{"source": "patent US20230074545A1", "about": "“TREATMENT OF CANCER WITH CDK12/13 INHIBITORS” (Kinnate Biopharma Inc., priority 2019, published 2023)", "assay_in_all_cases": "Radiometric kinase panel", "type_in_all_cases": "biochemical", "key": {"CK1delta": {"biological_target": "T1, CK1delta (Homo sapiens, UniProt P48730)", "T1 construct": "either as full-length or enzymatically active fragments; purchased ProQinase GmbH (Reaction Biology)", "outline": "(§1)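 Activity was measured radiometrically from [gamma-33P]-ATP incorporation into substrate. The kinases were recombinant human GST- or His-tagged proteins, full-length or active fragments, expressed in Sf9 or E. coli. Compound in 10% DMSO was added before the enzyme/substrate mix, which started the reaction.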"}, "CAMK2G": {"biological_target": "T2, CAMK2G (Homo sapiens, UniProt Q13555)", "T2 construct": "either as full-length or enzymatically active fragments; purchased ProQinase GmbH (Reaction Biology)", "outline": "as §1"}, "EGFR": {"biological_target": "T3, EGFR (Homo sapiens, UniProt P00533)", "T3 construct": "either as full-length or enzymatically active fragments; purchased ProQinase GmbH (Reaction Biology)", "outline": "as §1"}, "CLK4": {"biological_target": "T4, CLK4 (Homo sapiens, UniProt Q9HAZ1)", "T4 construct": "purchased ProQinase GmbH (Reaction Biology)", "outline": "as §1"}, "IKKalpha": {"biological_target": "T5, IKKalpha (Homo sapiens, UniProt O15111)", "T5 construct": "either as full-length or enzymatically active fragments; purchased ProQinase GmbH (Reaction Biology)", "outline": "as §1"}, "ACVR1": {"biological_target": "T6, ACVR1 (Homo sapiens, UniProt Q04771)", "T6 construct": "purchased ProQinase GmbH (Reaction Biology)", "outline": "as §1"}, "ROCK1": {"biological_target": "T7, ROCK1 (Homo sapiens, UniProt Q13464)", "T7 construct": "either as full-length or enzymatically active fragments; purchased ProQinase GmbH (Reaction Biology)", "outline": "as §1"}, "CAMK2B": {"biological_target": "T8, CAMK2B (Homo sapiens, UniProt Q13554)", "T8 construct": "either as full-length or enzymatically active fragments; purchased ProQinase GmbH (Reaction Biology)", "T8 sequence (Q13554 whole entry, the tested form may be a part)": "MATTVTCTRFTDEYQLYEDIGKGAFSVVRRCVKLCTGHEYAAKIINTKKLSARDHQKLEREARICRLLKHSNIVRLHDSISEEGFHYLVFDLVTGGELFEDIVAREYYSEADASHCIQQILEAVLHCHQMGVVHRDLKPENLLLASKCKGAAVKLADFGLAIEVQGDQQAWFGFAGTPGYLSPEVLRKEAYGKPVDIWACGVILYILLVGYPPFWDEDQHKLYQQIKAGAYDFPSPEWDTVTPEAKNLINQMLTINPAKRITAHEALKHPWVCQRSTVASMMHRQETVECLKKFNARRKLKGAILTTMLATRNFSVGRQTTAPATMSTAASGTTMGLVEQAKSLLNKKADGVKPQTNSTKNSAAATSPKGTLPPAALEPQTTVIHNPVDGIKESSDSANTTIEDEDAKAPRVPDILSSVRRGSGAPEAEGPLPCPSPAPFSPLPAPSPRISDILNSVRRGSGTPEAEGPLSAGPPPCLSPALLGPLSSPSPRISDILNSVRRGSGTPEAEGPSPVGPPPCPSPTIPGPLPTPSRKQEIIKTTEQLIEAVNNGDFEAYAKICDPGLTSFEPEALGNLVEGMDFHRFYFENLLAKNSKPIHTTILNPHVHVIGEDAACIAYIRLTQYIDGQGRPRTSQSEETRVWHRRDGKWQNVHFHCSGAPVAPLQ", "outline": "as §1"}, "RIPK2": {"biological_target": "T9, RIPK2 (Homo sapiens, UniProt O43353)", "T9 construct": "either as full-length or enzymatically active fragments; purchased ProQinase GmbH (Reaction Biology)", "T9 sequence (O43353 whole entry, the tested form may be a part)": "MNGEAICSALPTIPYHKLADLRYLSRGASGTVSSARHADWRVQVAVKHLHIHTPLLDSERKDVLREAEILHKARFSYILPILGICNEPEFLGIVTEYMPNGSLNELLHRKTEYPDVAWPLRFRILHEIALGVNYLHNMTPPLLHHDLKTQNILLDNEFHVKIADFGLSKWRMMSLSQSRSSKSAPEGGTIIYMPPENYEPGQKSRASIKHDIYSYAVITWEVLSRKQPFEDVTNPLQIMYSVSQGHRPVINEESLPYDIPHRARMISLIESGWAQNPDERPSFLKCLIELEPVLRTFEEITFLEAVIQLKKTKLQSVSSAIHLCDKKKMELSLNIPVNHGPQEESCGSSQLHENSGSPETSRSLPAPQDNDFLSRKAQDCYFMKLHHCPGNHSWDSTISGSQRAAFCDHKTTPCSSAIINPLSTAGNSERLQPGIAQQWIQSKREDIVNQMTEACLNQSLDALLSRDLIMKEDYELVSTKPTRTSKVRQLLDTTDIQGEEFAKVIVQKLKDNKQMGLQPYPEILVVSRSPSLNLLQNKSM", "outline": "as §1"}, "MAP3K10": {"biological_target": "T10, MAP3K10 (Homo sapiens, UniProt Q02779)", "T10 construct": "either as full-length or enzymatically active fragments; purchased ProQinase GmbH (Reaction Biology)", "T10 sequence (Q02779 whole entry, the tested form may be a part)": "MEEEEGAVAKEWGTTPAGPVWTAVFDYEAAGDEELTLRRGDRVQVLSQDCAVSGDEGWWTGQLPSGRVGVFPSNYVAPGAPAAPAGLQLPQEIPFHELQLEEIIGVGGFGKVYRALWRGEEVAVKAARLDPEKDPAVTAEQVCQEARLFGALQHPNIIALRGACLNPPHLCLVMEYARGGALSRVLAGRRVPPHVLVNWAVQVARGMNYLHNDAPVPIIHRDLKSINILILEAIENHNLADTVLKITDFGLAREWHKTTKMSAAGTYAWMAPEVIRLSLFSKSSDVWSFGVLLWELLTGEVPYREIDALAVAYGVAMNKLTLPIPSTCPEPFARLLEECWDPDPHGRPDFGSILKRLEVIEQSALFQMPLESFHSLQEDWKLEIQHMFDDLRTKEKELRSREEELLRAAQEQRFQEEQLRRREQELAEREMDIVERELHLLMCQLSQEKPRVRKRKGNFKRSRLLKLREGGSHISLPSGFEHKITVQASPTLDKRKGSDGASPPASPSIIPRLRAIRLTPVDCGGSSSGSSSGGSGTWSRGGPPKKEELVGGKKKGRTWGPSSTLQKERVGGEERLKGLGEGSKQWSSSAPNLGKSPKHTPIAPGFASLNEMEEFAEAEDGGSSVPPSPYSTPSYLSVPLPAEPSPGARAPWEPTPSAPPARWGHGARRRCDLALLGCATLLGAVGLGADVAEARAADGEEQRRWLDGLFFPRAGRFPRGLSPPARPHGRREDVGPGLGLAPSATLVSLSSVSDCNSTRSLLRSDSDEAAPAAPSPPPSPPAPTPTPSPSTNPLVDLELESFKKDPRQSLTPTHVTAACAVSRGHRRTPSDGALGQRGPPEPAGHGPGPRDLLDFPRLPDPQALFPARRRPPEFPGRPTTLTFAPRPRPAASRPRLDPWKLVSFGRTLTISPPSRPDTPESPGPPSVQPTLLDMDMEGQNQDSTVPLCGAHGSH", "outline": "as §1"}, "TEC": {"biological_target": "T11, TEC (Homo sapiens, UniProt P42680)", "T11 construct": "either as full-length or enzymatically active fragments; purchased ProQinase GmbH (Reaction Biology)", "T11 sequence (P42680 whole entry, the tested form may be a part)": "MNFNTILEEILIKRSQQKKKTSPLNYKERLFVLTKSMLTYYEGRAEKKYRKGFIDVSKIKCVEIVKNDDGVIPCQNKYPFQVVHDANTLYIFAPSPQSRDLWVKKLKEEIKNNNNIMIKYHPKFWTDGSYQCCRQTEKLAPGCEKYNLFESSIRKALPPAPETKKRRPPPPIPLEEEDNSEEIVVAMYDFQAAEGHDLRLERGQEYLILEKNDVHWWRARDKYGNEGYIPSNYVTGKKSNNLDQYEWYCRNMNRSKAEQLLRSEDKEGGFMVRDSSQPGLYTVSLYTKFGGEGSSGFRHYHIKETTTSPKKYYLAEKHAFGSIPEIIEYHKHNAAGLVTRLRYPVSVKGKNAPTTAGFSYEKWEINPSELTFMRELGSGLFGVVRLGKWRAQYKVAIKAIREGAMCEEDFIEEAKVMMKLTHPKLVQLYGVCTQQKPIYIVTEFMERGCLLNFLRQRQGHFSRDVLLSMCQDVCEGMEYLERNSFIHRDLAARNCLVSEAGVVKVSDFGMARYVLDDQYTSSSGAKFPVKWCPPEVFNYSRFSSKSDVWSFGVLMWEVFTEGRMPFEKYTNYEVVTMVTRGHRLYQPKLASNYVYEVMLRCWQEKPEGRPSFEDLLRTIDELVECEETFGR", "outline": "as §1"}, "TSK2": {"biological_target": "T12, TSK2 (Homo sapiens, UniProt Q96PF2)", "T12 construct": "purchased ProQinase GmbH (Reaction Biology)", "outline": "as §1"}, "CDK4/CycD1": {"biological_target": "T13, CDK4/CycD1 (Homo sapiens, UniProt P11802)", "T13 construct": "either as full-length or enzymatically active fragments; purchased ProQinase GmbH (Reaction Biology); host or cells: Sf9 insect cells or E. coli (not specified per kinase)", "outline": "as §1"}, "SAK": {"biological_target": "T14, SAK (Homo sapiens, UniProt O00444)", "T14 construct": "either as full-length or enzymatically active fragments; purchased ProQinase GmbH (Reaction Biology)", "outline": "as §1"}, "GRK5": {"biological_target": "T15, GRK5 (Homo sapiens, UniProt P34947)", "T15 construct": "either as full-length or enzymatically active fragments; purchased ProQinase GmbH (Reaction Biology)", "outline": "as §1"}, "MAP3K7/MAP3K7IP1": {"biological_target": "T16, MAP3K7/MAP3K7IP1 (Homo sapiens, UniProt O43318)", "T16 construct": "either as full-length or enzymatically active fragments; purchased ProQinase GmbH (Reaction Biology)", "T16 sequence (O43318 whole entry, the tested form may be a part)": "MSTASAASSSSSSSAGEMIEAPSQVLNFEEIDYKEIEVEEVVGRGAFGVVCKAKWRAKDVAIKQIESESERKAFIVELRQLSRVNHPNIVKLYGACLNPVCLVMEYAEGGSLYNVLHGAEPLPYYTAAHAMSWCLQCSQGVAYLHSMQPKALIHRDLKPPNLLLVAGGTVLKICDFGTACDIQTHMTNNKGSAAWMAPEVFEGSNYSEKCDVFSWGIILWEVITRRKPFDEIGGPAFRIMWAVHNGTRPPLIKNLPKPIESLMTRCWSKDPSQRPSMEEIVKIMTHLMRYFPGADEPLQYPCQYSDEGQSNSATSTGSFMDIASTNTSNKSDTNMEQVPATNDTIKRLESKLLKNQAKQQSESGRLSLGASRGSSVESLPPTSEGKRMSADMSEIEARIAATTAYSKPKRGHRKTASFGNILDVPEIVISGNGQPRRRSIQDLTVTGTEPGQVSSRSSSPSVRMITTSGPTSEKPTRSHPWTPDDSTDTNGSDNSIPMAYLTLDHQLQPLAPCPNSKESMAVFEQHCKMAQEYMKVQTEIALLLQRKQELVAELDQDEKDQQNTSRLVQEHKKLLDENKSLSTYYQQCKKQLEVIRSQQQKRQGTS", "T16 sequence (Q15750 whole entry partner, the tested form may be a part)": "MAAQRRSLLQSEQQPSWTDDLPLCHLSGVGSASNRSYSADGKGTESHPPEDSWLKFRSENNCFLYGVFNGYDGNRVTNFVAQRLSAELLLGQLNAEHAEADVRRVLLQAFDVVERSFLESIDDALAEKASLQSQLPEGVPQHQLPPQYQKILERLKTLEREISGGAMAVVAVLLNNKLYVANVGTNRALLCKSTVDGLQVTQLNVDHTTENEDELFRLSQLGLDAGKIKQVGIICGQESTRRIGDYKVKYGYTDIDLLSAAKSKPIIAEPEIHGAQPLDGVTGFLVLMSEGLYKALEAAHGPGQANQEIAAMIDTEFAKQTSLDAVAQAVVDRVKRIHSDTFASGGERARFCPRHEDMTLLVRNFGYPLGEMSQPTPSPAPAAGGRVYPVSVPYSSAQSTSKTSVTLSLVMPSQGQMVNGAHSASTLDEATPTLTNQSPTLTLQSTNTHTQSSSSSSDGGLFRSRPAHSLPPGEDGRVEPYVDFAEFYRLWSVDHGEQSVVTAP", "outline": "as §1"}, "PIM3": {"biological_target": "T17, PIM3 (Homo sapiens, UniProt Q86V86)", "T17 construct": "either as full-length or enzymatically active fragments; purchased ProQinase GmbH (Reaction Biology)", "outline": "as §1"}, "PAK1": {"biological_target": "T18, PAK1 (Homo sapiens, UniProt Q13153)", "T18 construct": "either as full-length or enzymatically active fragments; purchased ProQinase GmbH (Reaction Biology)", "outline": "as §1"}, "MKK4": {"biological_target": "T19, MKK4 (Homo sapiens, UniProt P45985)", "T19 construct": "either as full-length or enzymatically active fragments; purchased ProQinase GmbH (Reaction Biology)", "outline": "as §1"}, "CDK1/CycB1": {"biological_target": "T20, CDK1/CycB1 (Homo sapiens, UniProt P06493)", "T20 construct": "either as full-length or enzymatically active fragments; purchased ProQinase GmbH (Reaction Biology); host or cells: Sf9 insect cells or E. coli", "outline": "as §1"}, "FGFR3": {"biological_target": "T21, FGFR3 (Homo sapiens, UniProt P22607)", "T21 construct": "either as full-length or enzymatically active fragments; purchased ProQinase GmbH (Reaction Biology); host or cells: Sf9 insect cells or E. coli", "outline": "as §1"}, "ARK5": {"biological_target": "T22, ARK5 (Homo sapiens, UniProt O60285)", "T22 construct": "either as full-length or enzymatically active fragments; purchased ProQinase GmbH (Reaction Biology); host or cells: Sf9 insect cells or E. coli (not specified per kinase)", "outline": "as §1"}, "JNK1": {"biological_target": "T23, JNK1 (Homo sapiens, UniProt P45983)", "T23 construct": "either as full-length or enzymatically active fragments; purchased ProQinase GmbH (Reaction Biology)", "T23 sequence (P45983 whole entry, the tested form may be a part)": "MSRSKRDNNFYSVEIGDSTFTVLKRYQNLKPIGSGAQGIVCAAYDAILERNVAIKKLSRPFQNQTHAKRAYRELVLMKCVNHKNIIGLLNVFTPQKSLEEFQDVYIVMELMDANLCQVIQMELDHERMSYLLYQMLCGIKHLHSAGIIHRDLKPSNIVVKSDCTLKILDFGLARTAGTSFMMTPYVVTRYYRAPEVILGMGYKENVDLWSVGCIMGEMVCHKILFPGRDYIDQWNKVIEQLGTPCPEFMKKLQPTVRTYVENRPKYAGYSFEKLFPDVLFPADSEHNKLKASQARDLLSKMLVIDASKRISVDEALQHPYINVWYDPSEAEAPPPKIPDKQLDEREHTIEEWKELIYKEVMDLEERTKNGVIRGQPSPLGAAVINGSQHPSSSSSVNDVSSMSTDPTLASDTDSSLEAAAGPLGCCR", "outline": "as §1"}, "NEK2": {"biological_target": "T24, NEK2 (Homo sapiens, UniProt P51955)", "T24 construct": "either as full-length or enzymatically active fragments; purchased ProQinase GmbH (Reaction Biology)", "outline": "as §1"}, "PRKG1": {"biological_target": "T25, PRKG1 (Homo sapiens, UniProt Q13976)", "T25 construct": "either as full-length or enzymatically active fragments; purchased ProQinase GmbH (Reaction Biology)", "T25 sequence (Q13976 whole entry, the tested form may be a part)": "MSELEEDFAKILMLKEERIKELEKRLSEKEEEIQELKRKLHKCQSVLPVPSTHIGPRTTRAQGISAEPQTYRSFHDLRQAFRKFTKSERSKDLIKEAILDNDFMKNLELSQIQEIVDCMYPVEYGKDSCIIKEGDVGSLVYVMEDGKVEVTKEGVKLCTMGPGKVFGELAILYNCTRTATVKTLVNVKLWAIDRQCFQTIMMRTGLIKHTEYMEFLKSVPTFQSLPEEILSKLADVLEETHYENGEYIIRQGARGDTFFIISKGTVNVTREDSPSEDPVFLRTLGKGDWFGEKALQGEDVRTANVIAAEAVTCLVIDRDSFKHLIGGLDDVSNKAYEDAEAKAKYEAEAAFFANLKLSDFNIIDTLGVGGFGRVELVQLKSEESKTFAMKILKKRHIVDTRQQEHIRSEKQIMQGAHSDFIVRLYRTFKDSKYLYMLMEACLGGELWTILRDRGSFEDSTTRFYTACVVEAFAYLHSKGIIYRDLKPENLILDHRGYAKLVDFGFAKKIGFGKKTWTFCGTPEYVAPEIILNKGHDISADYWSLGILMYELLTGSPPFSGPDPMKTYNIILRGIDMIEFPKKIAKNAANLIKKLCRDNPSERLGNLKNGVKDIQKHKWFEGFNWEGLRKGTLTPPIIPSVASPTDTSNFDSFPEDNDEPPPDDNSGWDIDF", "outline": "as §1"}, "ULK2": {"biological_target": "T26, ULK2 (Homo sapiens, UniProt Q8IYT8)", "T26 construct": "either as full-length or enzymatically active fragments; purchased ProQinase GmbH (Reaction Biology)", "outline": "as §1"}, "FGFR1": {"biological_target": "T27, FGFR1 (Homo sapiens, UniProt P11362)", "T27 construct": "either as full-length or enzymatically active fragments; purchased ProQinase GmbH (Reaction Biology)", "outline": "as §1"}, "MAP3K11": {"biological_target": "T28, MAP3K11 (Homo sapiens, UniProt Q16584)", "T28 construct": "either as full-length or enzymatically active fragments; purchased ProQinase GmbH (Reaction Biology)", "outline": "as §1"}, "JNK2": {"biological_target": "T29, JNK2 (Homo sapiens, UniProt P45984)", "T29 construct": "either as full-length or enzymatically active fragments; purchased ProQinase GmbH (Reaction Biology)", "outline": "as §1"}, "CDK19/CycC": {"biological_target": "T30, CDK19/CycC (Homo sapiens, UniProt Q9BWU1)", "T30 construct": "either as full-length or enzymatically active fragments; purchased ProQinase GmbH (Reaction Biology); host or cells: Sf9 insect cells or E. coli (not specified per kinase)", "outline": "as §1"}, "PYK2": {"biological_target": "T31, PYK2 (Homo sapiens, UniProt Q14289)", "T31 construct": "either as full-length or enzymatically active fragments; purchased ProQinase GmbH (Reaction Biology)", "outline": "as §1"}}, "data": [{"smiles": "C=CC(=O)Nc1ccc(C(=O)N2CC[C@@H](Nc3ncc(C#N)cn3)C2)cc1", "note": "[Compound 4, (R)-N-(4-(3-((5-cyanopyrimidin-2-yl)amino)pyrrolidine-1-carbonyl)phenyl)acrylamide]", "values": [{"measurement": "inhibition at 1 µM", "setting": "CK1delta", "result": -7, "unit": "%"}, {"measurement": "inhibition at 1 µM", "setting": "CAMK2G", "result": 5, "unit": "%"}, {"measurement": "inhibition at 1 µM", "setting": "EGFR", "result": 7, "unit": "%"}, {"measurement": "inhibition at 1 µM", "setting": "CLK4", "result": -2, "unit": "%"}, {"measurement": "inhibition at 1 µM", "setting": "IKKalpha", "result": -8, "unit": "%"}, {"measurement": "inhibition at 1 µM", "setting": "ACVR1", "result": -1, "unit": "%"}, {"measurement": "inhibition at 1 µM", "setting": "ROCK1", "result": 15, "unit": "%"}, {"measurement": "inhibition at 1 µM", "setting": "CAMK2B", "result": -12, "unit": "%"}, {"measurement": "inhibition at 1 µM", "setting": "RIPK2", "result": 5, "unit": "%"}, {"measurement": "inhibition at 1 µM", "setting": "MAP3K10", "result": -5, "unit": "%"}, {"measurement": "inhibition at 1 µM", "setting": "TEC", "result": 5, "unit": "%"}, {"measurement": "inhibition at 1 µM", "setting": "TSK2", "result": -1, "unit": "%"}, {"measurement": "inhibition at 1 µM", "setting": "CDK4/CycD1", "result": 9, "unit": "%"}, {"measurement": "inhibition at 1 µM", "setting": "SAK", "result": -11, "unit": "%"}, {"measurement": "inhibition at 1 µM", "setting": "GRK5", "result": -6, "unit": "%"}, {"measurement": "inhibition at 1 µM", "setting": "MAP3K7/MAP3K7IP1", "result": 2, "unit": "%"}, {"measurement": "inhibition at 1 µM", "setting": "PIM3", "result": 4, "unit": "%"}, {"measurement": "inhibition at 1 µM", "setting": "PAK1", "result": -6, "unit": "%"}, {"measurement": "inhibition at 1 µM", "setting": "MKK4", "result": 4, "unit": "%"}, {"measurement": "inhibition at 1 µM", "setting": "CDK1/CycB1", "result": 13, "unit": "%"}, {"measurement": "inhibition at 1 µM", "setting": "FGFR3", "result": -16, "unit": "%"}, {"measurement": "inhibition at 1 µM", "setting": "ARK5", "result": 10, "unit": "%"}, {"measurement": "inhibition at 1 µM", "setting": "JNK1", "result": 3, "unit": "%"}, {"measurement": "inhibition at 1 µM", "setting": "NEK2", "result": -8, "unit": "%"}, {"measurement": "inhibition at 1 µM", "setting": "PRKG1", "result": -12, "unit": "%"}, {"measurement": "inhibition at 1 µM", "setting": "ULK2", "result": 3, "unit": "%"}, {"measurement": "inhibition at 1 µM", "setting": "FGFR1", "result": 3, "unit": "%"}, {"measurement": "inhibition at 1 µM", "setting": "MAP3K11", "result": -7, "unit": "%"}, {"measurement": "inhibition at 1 µM", "setting": "JNK2", "result": 6, "unit": "%"}, {"measurement": "inhibition at 1 µM", "setting": "CDK19/CycC", "result": 10, "unit": "%"}, {"measurement": "inhibition at 1 µM", "setting": "PYK2", "result": 4, "unit": "%"}]}]}
